We go through four molecules from ChEMBL document CHEMBL4339219, “Drug Design and Synthesis of First in Class PDZ1 Targeting NHERF1 Inhibitors as Anticancer Agents” (ACS Med Chem Lett, 2019).

SMILES strings stand for the structures.

One data set concerns HEK-293T. Put plainly: Effect on FOP reporter expression in LiCl-induced HEK293T cells incubated for 24 hrs by luciferase reporter gene assay. To be noted: human. The format is ADME, cell-based.
Data set [1] deals with SW480. Put plainly: cells. To be noted: Homo sapiens, SW480, 72 h.
The test system of data set [2] is DLD-1. Put plainly: cells. To be noted: Homo sapiens, DLD-1, 72 h.
In data set [3] the test system is DLD-1. Briefly: cells. Conditions: Homo sapiens, DLD-1, 72 h. The source holds these as a separate data set.
Data set [4] relates to SW480. Briefly: cells. To be noted: Homo sapiens, SW480, 72 h. The source holds these as a separate data set.
Data set [5] deals with SW480. Briefly: cells. To be noted: Homo sapiens, SW480, 72 h. This is another data set of the same source.
In data set [6] the test system is SW-620. Put plainly: cells. To be noted: Homo sapiens, SW-620, 72 h.
Data set [7] concerns DLD-1. Put plainly: cells. Conditions: Homo sapiens, DLD-1, 72 h. This is another data set of the same source.
The subject of data set [8] is SW-620. Put plainly: cells. To be noted: Homo sapiens, SW-620, 72 h. The source holds these as a separate data set.

On to `CCOC(=O)c1ccc(NS(=O)(=O)c2ccc(Br)cc2)cc1`, for which the Activity entry in the data set on HEK-293T is listed as “Non-Toxic”.
On to `Cc1cc([N+](=O)[O-])ccc1NS(=O)(=O)c1cc(Cl)ccc1Cl`, for which the half-inhibitory concentration (IC50) stood at 10 µM in the data set with SW480 [1] and 28 µM in the data set on DLD-1 [2].
With `O=C(Nc1ccccc1CO)c1c[nH]c2ccc(Cl)cc12`, the IC50 in the data set with DLD-1 [3] was 100 nM; with SW480 [4], 3000 nM; in the data set with SW480 [5], 300 nM; in the data set with SW-620 [6], 22 µM; in the data set with DLD-1 [7], 800 nM.
Consider `O=C(Nc1ccc(CO)cc1)c1[nH]c2ccc(Cl)cc2c1Cc1ccccc1`, for which the 50% inhibitory concentration (IC50) is 100 nM in the data set with DLD-1 [3]; 900 nM in the data set on SW480 [4]; 500 nM in the data set on SW-620 [8]; 100 nM with SW480 [5]; 18 µM with SW-620 [6]; 500 nM with DLD-1 [7].

A word on the IC50: it is the concentration that gives 50% inhibition. Read a low IC50 as higher potency.
